Test results: patent publication US9045555B2, “Vaccine against amyloid folding intermediate” (priority 2008, dated 2015)

Tests used:
oligomeric Aβ 1-42 = experiment: ELISA of sera of immunized mice, coating oligomeric Aβ 1-42 (cross-reactivity); assay type: in vivo, Balb/c mice; settings: in vitro ELISA
fibrillar Aβ 1-42 = experiment: ELISA of sera of immunized mice, coating fibrillar Aβ 1-42 (cross-reactivity); assay type: in vivo, Balb/c mice; settings: in vitro ELISA
[1] = test system: Aβ deposits in post-mortem AD human brain tissue (hippocampus); experiment: Immunohistochemical staining of human AD brain sections with sera of immunized mice; settings: mouse serum 1:300, hippocampus cryosections, Braak 5 or 6; positive control 6E10
Source text: FIG. 6: Immunohistochemical staining of human brain section donor 99-30 (Braak 6) with a mouse serum (1:300) immunized with cyclo[Aβ(22-28)-YNGK]/tetanus toxoid conjugate (a) and the control monoclonal 6E10 (1:15.000) in (b). […] (Microscope: Leica DMRE fitted with a DC300 camera)
Human brain sections of the hippocampus of several donors with Alzheimer disease (Braak 5 or 6) were used (Netherlands Brain Bank). Cryosections (10 μm) were cut from unfixed directly frozen tissue, thaw-mounted, dried for 1 hour and stored in a sealed box at −20 C. For immunostaining, sections were fixed in 4% PFA-PBS solution for 10 min, washed in 0.05 M phosphate buffer (PB) for 10 min with 2 exchanges and blocked with 10% normal donkey serum (NDS)+0.4% TritonX100 in 0.05M PB for 1 hour at RT. The blocking solution was discarded and diluted mouse sera (1:300; first antibody) in 3% NDS+0.4% TritonX100 in 0.05 M PB was added and incubated 0/N at RT in a box with wet tissues. Sections were washed with 0.05M PB; at least 30 min with one or more exchanges. Then sections were incubated with Donkey-anti-Mouse˜Cy3 1:1400 in 0.05 M PB for 2 hours. Sections were washed with 0.05M PB; at least 30 min with one or more exchanges. Sections were sealed in Vectashield with Dapi (Vector). Mouse Monoclonal 6E10 to beta amyloid 1-17 (Abcam, Cambridge, UK) was used as positive control (1:15,000).

[2] = test system: conformational epitope of Aβ 1-42; experiment: Antibody response in mice recognizing a conformational epitope of Aβ 1-42; assay type: in vivo; settings: epitope as expressed in monomer, soluble oligomer, fibrils or neurodegenerative plaques
[3] = ELISA of sera of immunized mice, coating homologous peptide-BSA conjugates (anti-peptide titre); assay type: in vivo, Balb/c mice

Substance	cross-reaction of elicited antibodies with Aβ (1-42)-oligomers (oligomeric Aβ 1-42)	cross-reaction of elicited antibodies with Aβ (1-42)-fibrils (fibrillar Aβ 1-42)	recognition of Aβ deposits / plaques in AD human brain tissue by elicited antibodies [1]	induction of an antibody response in mice specifically recognizing a conformational epitope of Aβ 1-42 [2]	antipeptide antibody titers / antibody response to the immunizing peptide [3]
cyclo[EDVGSNKYNGK*] (cyclo(EDVGSNKYNGK(tetanus toxoid))) [group 9, tetanus toxoid conjugate of the cyclic peptide [Aβ(22-28)-YNGK*]]	cross-react	cross-react	recognize	able to induce an antibody response	
Ac-K*EDVGSNKYNG-NH2 (Ac-K(tetanus toxoid)EDVGSNKYNG-NH2) [group 3, tetanus toxoid conjugate of the linear N-acetylated peptide amide]	did not recognize	did not recognize			good
